Key:
C. neoformans = conditions: in vitro, maximal inhibition
[1] = system: imiquimod-induced dermatitis; assay: Imiquimod-induced psoriasiform dermatitis in mice, topical ointment; type: in vivo
[2] = system: PC3 (prostate cancer) cell line; assay: Cell viability, WST-1 assay, PC3 cells; type: cell-based; conditions: 48 and 72 hours, WST-1, FIGS. 3 and 4
[3] = system: A549 (lung cancer) cell line; assay: Cell viability, WST-1 assay, A549 cells; type: cell-based; conditions: 48 and 72 hours, WST-1, FIGS. 1 and 2

| Compound | inhibition of C. neoformans growth (ceiling) (C. neoformans) | ear thickness (caliper measurements) ([1]; female Balb/C mice, 0.01% ointment topically on ears, started day 5 of imiquimod, FIG. 5) | PASI scoring (erythema, thickening, scaling, cumulative) ([1]; female Balb/C mice, 0.01% ointment topically on ears, started day 5 of imiquimod, FIGS. 6A-D) | efficacy in model of psoriasiform dermatitis ([1]; ointment concentration of 0.01%) | doses reducing cancer cell viability, relative to those required for similar reductions by compound AF [2] | doses reducing cancer cell viability, relative to those required for similar reductions by compound AF [3] |
| --- | --- | --- | --- | --- | --- | --- |
| CCN(CC)CCCC(C)Nc1ccnc2cc(Cl)ccc12 (stereo not drawn) [Chloroquine] | about 40% |  |  |  |  |  |
| c1ccc(Oc2cccc(Cc3nc4cnc5ccccc5c4[nH]3)c2)cc1 [Compound GE, 2-(3-Phenoxybenzyl)-1H-imidazo[4,5-c]quinoline] |  | reduced imiquimod-induced inflammatory damage to mouse ears | reducing all three aspects of dermal inflammation captured by the PASI scoring system | effective | approximately 1/10 | approximately 1/10 |

— patent US12649739B2, “Imidazoquinoline compound having anti-inflammatory, antifugal, antiparasitic, and anticancer activity” (PHARMA CINQ, LLC, priority 2020, dated 2026)
